Data taken from patent publication US7205298B2, “Substituted triazine kinase inhibitors” (Janssen Pharmaceutica N.V., priority 2002, dated 2007).

Experiments:
PKC β-2 = target: T1, PKC β-2 (Homo sapiens, UniProt P05771); test: Kinase selectivity assay PKC β-2; format: biochemical
T1 construct: purchased BIOMOL SE-143; host or cells: insect cells
Procedure: Assays to test compound inhibition of other kinases were preformed using methods that measure the amount of phosphorylation of a biotinylated peptide substrate. Biotinylated peptide substrates were selected from the literature as appropriate for the enzyme being evaluated. The general procedure used to assay for kinase activity is as follows: a kinase reaction mix was prepared in 50 mM Tris-HCl pH=8, 10 mM MgCl2, 0.1 mM Na3VO4, 1 mM DTT, 10 μM ATP, 0.25–1 μM biotinylated peptide substrate, 0.2–0.8 μCuries per well ^33P-γ-ATP (2000–3000 Ci/mmol). Assay conditions vary slightly for each protein kinase, for example, insulin receptor kinase requires 10 mM MnCl2 for activity and Calmodulin-dependent protein kinase requires calmodulin and 2 mM CaCl2. The reaction mixture was dispensed into the wells of a streptavidin coated Flashplate and 1 μL test compound in 100% DMSO was added to a 100 μL reaction volume resulting in a final concentration of 1% DMSO in the reaction. Enzyme was diluted in 50 mM Tris-HCl pH=8.0, 0.1% BSA and added to each well. The reaction was incubated for one hour at 30° C. in the presence of a test compound. […] The plate was read on a scintillation counter to determine ^33P-γ-ATP incorporated into the immobilized peptide substrate. […] A maximum and minimum signal for the assay was determined on each plate. […]

[1] = tested on: PC-3 prostate adenocarcinoma; test: Inhibition of cell proliferation, 14C-thymidine incorporation, PC-3; format: cell-based; conditions: Homo sapiens
Procedure: The ability of a test compound to inhibit the proliferation of cell growth was determined by measuring incorporation of ^14C-labelled thymidine into newly synthesized DNA within the cells. This method was used on cell lines derived from carcinomas originating from several tissues such as HeLa cervical adenocarcinoma (American Type Culture Collection (ATCC), Virginia, Cat. #CCL-2), HCT-116 colon carcinoma (CCL-247), MDA-MB-231 (Xenogen Corp.), PC-3 prostate adenocarcinoma (ATCC CRL-1435) and A375 malignant melanoma (ATCC CRL-1619).
Using this method, the effect of a compound on cell growth of cells with many different phenotypes can be determined. Cells were trypsinized and counted and 3000–8000 cells were added to each well of a 96-well CytoStar tissue culture treated scintillating microplate (Amersham #RPNQ0160) in complete medium in a volume of 100 μl. Cells were incubated for 24 hours in complete medium at 37° C. in an atmosphere containing 5% CO2. 1 μL of test compound in 100% DMSO was then added to the wells of the plate. DMSO only was added to control wells. Cells were incubated for 24 more hours in complete medium at 37° C. in an atmosphere containing 5% CO2. […] The degree of methyl ^14C-thymidine incorporation was quantified on a Packard Top Count.

T1 sequence (P05771 1-673 isoform P05771-2): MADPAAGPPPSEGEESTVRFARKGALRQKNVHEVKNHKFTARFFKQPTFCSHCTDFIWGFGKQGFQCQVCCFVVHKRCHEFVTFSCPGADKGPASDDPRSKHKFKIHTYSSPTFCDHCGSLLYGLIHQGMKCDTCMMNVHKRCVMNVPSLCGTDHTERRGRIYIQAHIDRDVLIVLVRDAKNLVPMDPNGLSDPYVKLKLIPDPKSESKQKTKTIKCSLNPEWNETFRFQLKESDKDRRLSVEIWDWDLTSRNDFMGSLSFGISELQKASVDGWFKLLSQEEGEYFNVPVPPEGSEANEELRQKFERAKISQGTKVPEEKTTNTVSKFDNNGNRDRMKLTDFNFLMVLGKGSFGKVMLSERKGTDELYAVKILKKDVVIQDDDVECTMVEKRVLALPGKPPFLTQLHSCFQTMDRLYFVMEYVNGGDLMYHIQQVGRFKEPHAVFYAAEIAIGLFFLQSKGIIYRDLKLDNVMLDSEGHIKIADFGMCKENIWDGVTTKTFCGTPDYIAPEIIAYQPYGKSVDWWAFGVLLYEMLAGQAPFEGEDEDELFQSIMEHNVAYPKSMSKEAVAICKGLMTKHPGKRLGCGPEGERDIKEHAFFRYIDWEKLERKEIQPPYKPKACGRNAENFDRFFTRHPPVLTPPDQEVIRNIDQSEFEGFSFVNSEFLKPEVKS

OCCCNc1cncc(-c2ncnc(Nc3cccc(Cl)c3)n2)c1 [Compound 1, 3-((5-(4-((3-chlorophenyl)amino)-1,3,5-triazin-2-yl)-3-pyridinyl)amino)-1-propanol]
IC50 (PKC β-2): > 100000 nM
IC50 [1]: 259 nM
